System: 439559-082-T-J2-PDC spheroids viability
Assay: Anticancer human tumor 439559-082-T-J2-PDC patient-derived colon adenocarcinoma cell line growth inhibition [GQUAD]
Conditions: for IC50: curve of first compound; for viability, T/C: stronger effect = lower value
Text: DNA G-quadruplex Stabilizer Agents in Combinations in Complex Spheroids
A high-throughput screen of multi-cell type tumor spheroids was designed to identify active combinations of DNA G-quadruplex stabilizer agents and targeted small molecules. Complex spheroids include a stromal component modeled by human endothelial cells (HUVEC) and fibroblasts modeled by human mesenchymal stem cells (MSCs). The concentration ranges selected for each drug and investigational agent were based upon clinically achievable concentrations if the clinical Cmax of the agent was known.
Compounds. The drugs and investigational agents: pidnarulex (CX-5461; NSC782164), APTO-253 (NSC789042), BRACO-19 (NSC847499), peposertib (NSC802822), ceralasertib (NSC780249), elimusertib (NSC800525), camonsertib (NSC841442), AZD-1390 (NSC803789), olaparib (NSC753686), talazoparib (NSC767125), ART-558 (NSC835418), sotorasib (NSC818433), MRTX-1133 (NSC836407), SN-38 (NSC673596), topotecan (NSC609699), etoposide (NSC141540), doxorubicin (NSC123127), gemcitabine (NSC613327), 5-fluorouracil (NSC19893), paclitaxel (NSC125973), vemurafenib (NSC761431), panobinostat (NSC761190), R-306465 (JNJ-16241199; NSC773264), adavosertib (NSC754352), TP-3654 (NSC805149), carboplatin (NSC241240), KSQ-4279 (NSC840948), and staurosporine (NSC755774) were obtained from the National Cancer Institute (NCI) Developmental Therapeutics Program Chemical Repository (34). The FDA-approved anticancer drug set is available from the NCI Developmental Therapeutics Program. […] The stock solutions were prepared in dimethyl sulfoxide (DMSO, Sigma-Aldrich, St. Louis, MO, cat. D2650) at 800-fold the tested concentration and stored at -70 degrees C prior to their use. All drugs and investigational agents were tested over a range starting from a high concentration at or near the clinical Cmax and decreasing in half-log increments. If the clinical Cmax for an agent had not been determined, the highest concentration tested was 10 microM.
2.3 Cell Culture. All cells were maintained in an incubator at 37 degrees C and 5% CO2 with 95% humidity. The PDC lines were cultured according to standard operating procedures established by the NCI PDMR. All PDCs were thawed and cultured in Matrigel-coated flasks prepared with a working solution of 1X Ham's F-12 nutrient mix, without supplementation (Invitrogen, cat. 11765054), 100 U/mL penicillin-streptomycin (Invitrogen, cat. 15140122), and 2.5% Matrigel (Corning Inc., cat. 354248) for the first three passages. The 857933-349-R-J2-PDC line was cultured in 6C/Colon 1B media, which includes advanced DMEM/F-12 (Thermo Fisher Scientific, cat. 12634028), 10 mM HEPES (Thermo Fisher Scientific, cat. 15630080), 1X GlutaMAX supplement (Thermo Fisher Scientific, cat. 35050061), 0.1 mg/mL primocin (InvivoGen, cat. ant-pm-2), 10% defined fetal bovine serum, heat inactivated (HyClone Laboratories Inc., cat. SH30070.03HI), 50% L-WRN conditioned media (ATCC, cat. CRL-3276), 1.25 mM N-Acetyl-L-cysteine (Sigma-Aldrich, cat. A9165), 10 mM nicotinamide (Sigma-Aldrich, cat. N0636), 1X B-27 supplement (Thermo Fisher Scientific, cat. 17504044), 1X N-2 supplement (Thermo Fisher Scientific, cat. 17502048), 10 microM Y-27632 dihydrochloride (Tocris Bioscience, cat. 1254), and 50 ng/mL human EGF recombinant protein (Thermo Fisher Scientific, cat. PHG0311). The 485176-168-R4-J1-PDC line was cultured in Panc media, which includes all 6C/Colon 1B media components plus 100 ng/mL human FGF-10 (Thermo Fisher Scientific, cat. 100-26), 500 nM SB-431542 (Selleckchem, cat. S1067), and gastrin (Tocris, cat. 3006).
[…]

[1] = second compound 0.0316 µM, first compound 0.0316 µM
[2] = second compound 0.0316 µM, first compound 0.1 µM
[3] = second compound 0.0316 µM, first compound 0.316 µM
[4] = second compound 0.0316 µM, first compound 1 µM
[5] = second compound 0.0316 µM, first compound 3.16 µM
[6] = second compound 0.0316 µM, first compound 10 µM
[7] = second compound 0.1 µM, first compound 0.0316 µM
[8] = second compound 0.1 µM, first compound 0.1 µM
[9] = second compound 0.1 µM, first compound 0.316 µM
[10] = second compound 0.1 µM, first compound 1 µM
[11] = second compound 0.1 µM, first compound 3.16 µM
[12] = second compound 0.1 µM, first compound 10 µM
[13] = second compound 0.316 µM, first compound 0.0316 µM
[14] = second compound 0.316 µM, first compound 0.1 µM
[15] = second compound 0.316 µM, first compound 0.316 µM
[16] = second compound 0.316 µM, first compound 1 µM
[17] = second compound 0.316 µM, first compound 3.16 µM
[18] = second compound 0.316 µM, first compound 10 µM
[19] = second compound 1 µM, first compound 0.0316 µM
[20] = second compound 1 µM, first compound 0.1 µM
[21] = second compound 1 µM, first compound 0.316 µM
[22] = second compound 1 µM, first compound 1 µM
[23] = second compound 1 µM, first compound 3.16 µM
[24] = second compound 1 µM, first compound 10 µM
[25] = second compound 3.16 µM, first compound 0.0316 µM
[26] = second compound 3.16 µM, first compound 0.1 µM
[27] = second compound 3.16 µM, first compound 0.316 µM
[28] = second compound 3.16 µM, first compound 1 µM
[29] = second compound 3.16 µM, first compound 3.16 µM
[30] = second compound 3.16 µM, first compound 10 µM
[31] = second compound 10 µM, first compound 0.0316 µM
[32] = second compound 10 µM, first compound 0.1 µM
[33] = second compound 10 µM, first compound 0.316 µM
[34] = second compound 10 µM, first compound 1 µM
[35] = second compound 10 µM, first compound 3.16 µM
[36] = second compound 10 µM, first compound 10 µM
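Further: spheroids exposed to the agents for 7 days before readout.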
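Wherever viability, T/C is given: percent of luminescence signal in DMSO vehicle wells taken as 100% viability.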

`O=C(NO)c1cnc(N2CCN(S(=O)(=O)c3ccc4ccccc4c3)CC2)nc1` + CN(C)c1ccc(Nc2c3ccc(NC(=O)CCN4CCCC4)cc3nc3cc(NC(=O)CCN4CCCC4)ccc23)cc1 showed an IC50 (second compound 0.0316 µM) of 445 nM, an IC50 (second compound 0.1 µM) of 393 nM and an IC50 (second compound 0.316 µM) of 334 nM. For the same compound, the IC50 (second compound 1 µM) was 406 nM, the IC50 (second compound 3.16 µM) was 402 nM and the IC50 (second compound 10 µM) was 365 nM. For the same compound, the viability, T/C [1] was 96.5%, the viability, T/C [2] was 83.4% and the viability, T/C [3] was 69.9%. It also gave a viability, T/C [4] of 2.76%, a viability, T/C [5] of 0.18% and a viability, T/C [6] of 0.23%. The viability, T/C [7] was 99.8%, the viability, T/C [8] was 85.2% and the viability, T/C [9] was 61.5%. It also gave a viability, T/C [10] of 5.02%, a viability, T/C [11] of 0.16% and a viability, T/C [12] of 0.17%. It also gave a viability, T/C [13] of 98.3%, a viability, T/C [14] of 82% and a viability, T/C [15] of 54.6%. It also gave a viability, T/C [16] of 3.28%, a viability, T/C [17] of 0.16% and a viability, T/C [18] of 0.13%. For the same compound, the viability, T/C [19] was 83.1%, the viability, T/C [20] was 87.2% and the viability, T/C [21] was 62.5%. For the same compound, the viability, T/C [22] was 4.71%, the viability, T/C [23] was 0.12% and the viability, T/C [24] was 0.19%. For the same compound, the viability, T/C [25] was 88.2%, the viability, T/C [26] was 85.2% and the viability, T/C [27] was 62.5%. The viability, T/C [28] was 2.43%, the viability, T/C [29] was 0.12% and the viability, T/C [30] was 0.2%. The viability, T/C [31] was 98.5%, the viability, T/C [32] was 80.9% and the viability, T/C [33] was 58.5%. The viability, T/C [34] was 5.85%, the viability, T/C [35] was 0.23% and the viability, T/C [36] was 0.19%.

Work on `C#Cc1c(F)ccc2cc(O)cc(-c3ncc4c(N5CC6CCC(C5)N6)nc(OCC56CCCN5CC(F)C6)nc4c3F)c12` (stereo unspecified) + Cc1[nH]c2ccc(F)cc2c1-c1nc2c3cccnc3c3ncccc3c2[nH]1 yielded an IC50 (second compound 0.0316 µM) of 1540 nM, an IC50 (second compound 0.1 µM) of 1620 nM and an IC50 (second compound 0.316 µM) of 1530 nM. The IC50 (second compound 1 µM) was 1610 nM, the IC50 (second compound 3.16 µM) was 709 nM and the IC50 (second compound 10 µM) was 1010 nM. The viability, T/C [1] was 97%, the viability, T/C [2] was 104% and the viability, T/C [3] was 87.6%. For the same compound, the viability, T/C [4] was 71.9%, the viability, T/C [5] was 13.7% and the viability, T/C [6] was 9.66%. For the same compound, the viability, T/C [7] was 112%, the viability, T/C [8] was 96.4% and the viability, T/C [9] was 109%. The viability, T/C [10] was 79.5%, the viability, T/C [11] was 9.72% and the viability, T/C [12] was 7.59%. It also gave a viability, T/C [13] of 105%, a viability, T/C [14] of 97.9% and a viability, T/C [15] of 90.8%. It also gave a viability, T/C [16] of 74.2%, a viability, T/C [17] of 7.82% and a viability, T/C [18] of 7.52%. For the same compound, the viability, T/C [19] was 91.5%, the viability, T/C [20] was 91.9% and the viability, T/C [21] was 101%. It also gave a viability, T/C [22] of 79.9%, a viability, T/C [23] of 8.22% and a viability, T/C [24] of 5.9%. For the same compound, the viability, T/C [25] was 72.2%, the viability, T/C [26] was 72.5% and the viability, T/C [27] was 70.8%. The viability, T/C [28] was 41.1%, the viability, T/C [29] was 5.26% and the viability, T/C [30] was 2.89%. It also gave a viability, T/C [31] of 85.2%, a viability, T/C [32] of 69.3% and a viability, T/C [33] of 93%. The viability, T/C [34] was 50.5%, the viability, T/C [35] was 2.77% and the viability, T/C [36] was 3.31%.

With `O=C(c1cc(Cc2n[nH]c(=O)c3ccccc23)ccc1F)N1CCN(C(=O)C2CC2)CC1` + Cc1[nH]c2ccc(F)cc2c1-c1nc2c3cccnc3c3ncccc3c2[nH]1 the IC50 (second compound 0.0316 µM) was over 10000 nM, the IC50 (second compound 0.1 µM) was over 10000 nM and the IC50 (second compound 0.316 µM) was over 10000 nM. For the same compound, the IC50 (second compound 1 µM) was over 10000 nM, the IC50 (second compound 3.16 µM) was over 10000 nM and the IC50 (second compound 10 µM) was over 10000 nM. For the same compound, the viability, T/C [1] was 100%, the viability, T/C [2] was 110% and the viability, T/C [3] was 91.5%. For the same compound, the viability, T/C [4] was 96.8%, the viability, T/C [5] was 102% and the viability, T/C [6] was 96.3%. It also gave a viability, T/C [7] of 103%, a viability, T/C [8] of 104% and a viability, T/C [9] of 94.9%. For the same compound, the viability, T/C [10] was 90.5%, the viability, T/C [11] was 103% and the viability, T/C [12] was 100%. The viability, T/C [13] was 103%, the viability, T/C [14] was 99.3% and the viability, T/C [15] was 105%. The viability, T/C [16] was 102%, the viability, T/C [17] was 107% and the viability, T/C [18] was 89.9%. For the same compound, the viability, T/C [19] was 105%, the viability, T/C [20] was 102% and the viability, T/C [21] was 98.3%. The viability, T/C [22] was 99.3%, the viability, T/C [23] was 105% and the viability, T/C [24] was 89%. The viability, T/C [25] was 90.8%, the viability, T/C [26] was 79% and the viability, T/C [27] was 92.7%. For the same compound, the viability, T/C [28] was 89.9%, the viability, T/C [29] was 98.8% and the viability, T/C [30] was 87.3%. For the same compound, the viability, T/C [31] was 88.2%, the viability, T/C [32] was 87.1% and the viability, T/C [33] was 86.2%. The viability, T/C [34] was 76%, the viability, T/C [35] was 90.5% and the viability, T/C [36] was 89.5%.

Reference: PubChem BioAssay AID2060510 (Molecular Pharmacology Branch, DTP, NCI, 2025)
